Measured values published in patent US20260076948A1, “TREATMENT OF DIABETIC RETINOPATHY USING ENDOTHELIN RECEPTOR ANTAGONISTS” (Perfuse Therapeutics, Inc., priority 2019, published 2026).
Entries after “also recorded” stand apart in the source; their conditions may differ.

Experiments:
[1] = Solubility (pH 2, pH 7, ethyl acetate); format: physicochemical
Excerpt: (§1) In the above table, the physicochemical data, e.g., solubility, were obtained following standard protocols known in the field (see, e.g., Reis et al., Mini Rev Med Chem., 2010, 10(11):1071-6; Avdeef et al., Expert Opin Drug Metab Toxicol., 2005, 1(2):325-42; Bharate et al., Comb Chem High Throughput Screen., 2016, 19(6):461-9; and Jain et al., J Pharm Biomed Anal., 2013, 86:11-35.); and the biochemical data, i.e., potency for ETA/ETB, were obtained following the protocols known in the field (see, e.g., Kirkby et al., Br J Pharmacol., 2008, 153(6):1105-19; and Maguire et al., Br J Pharmacol., 2014, 171(24):5555-72.).

[2] = Stability in solid state; format: physicochemical; details: 2 h@125° C.
Excerpt: as §1

[3] = Permeability (PAMPA); format: in vitro ADME; details: PAMPA log Pe and PSA
Excerpt: as §1

[4] = test system: ET-1 induced vasospasm; assay: Rabbit ET-1 induced vasospasm model, retinal blood flow (FA, OCT-A); format: in vivo, rabbit (Oryctolagus cuniculus)
Experimental: Adult, male Dutch-belted rabbits were given a 20 μl intravitreal injection (IVT) of 0.5 μg of ET-1 followed by a 20 μl intravitreal injection of 10-100 μg Edonentan given 30 min after the ET-1 administration. IOP, optical coherence tomography-angiography (OCT-A), and fluorescein angiograms (FA) were performed at pre-specified time points (30, 45, 60, and 75 min) following ET-1 and Edonentan administration to assess retinal blood flow changes induced by ET-1+/−Edonentan. […] To evaluate the effect of retinal blood flow following intravitreally administered endothelin-1 (ET-1) followed by the antagonist Edonentan in the rabbit, rabbits (Oryctolagus cuniculus) were given a 20 μL intravitreal injection of ET-1 in the left eye followed by a 20 μL intravitreal injection of Edonentan at 2 (or 3) different doses (e.g. 0.1 μg, 0.5 μg, 2.5 μg). The pulse ox, tonometry, optical coherence tomography angiography (OCTA), fluorescein angiography (FA) and retinal leakage scoring were performed for evaluation.

[5] = test system: oxygen-induced ischemic retinopathy (OIR); assay: Mouse oxygen-induced ischemic retinopathy (OIR), retinal hypoxia area; format: in vivo; details: OIR mice, IVT single dose 1 μL of 2 μg/μL; 24, 48, 96 hours
Experimental: A relevant mice model was used to obtain the retinal hypoxia area in mice with oxygen-induced ischemic retinopathy (OIR) at different time points, as shown in FIG. 4. […] Briefly, at P17, mice with OIR (n=60) were given an injection of ET-1 antagonist (1 μL of 2 μg/μL Edonentan formulation, single dose) in one eye and PBS in the fellow eye. At 24, 48, and 96 hours after injection, mice (n=10 for each time point) were euthanized and the retinas were dissected and stained with GSA lectin and hypoxyprobe. The area of NV, area of retinal hypoxia, and the area of retinal nonperfusion were determined for each retina.

[6] = Pharmacokinetics after topical or oral administration in the rat; format: in vivo, Brown Norway rats
Experimental: After the administrations, the animals (N=2) were euthanized at different time points (e.g. 4 and 8 hours) and tissues were collected for analysis. List of tissues collected include plasma, retina/retinal pigment epithelium (RPE)/choroid, vitreous humor and aqueous humor.

[7] = Pharmacokinetics after intravitreal administration in the rabbit; format: in vivo, rabbits (Oryctolagus cuniculus); details: IVT, plasma and ocular tissues
Experimental: To determine the pharmacokinetic and safety properties of Edonentan following intravitreal administration in the rabbit, rabbits (Oryctolagus cuniculus) received bilateral intravitreal injections (20 μL injection volume/eye). Following the injections, animals were tranquilized with a ketamine/xylazine cocktail, and then the animals were euthanized with an overdose of sodium pentobarbital (Euthasol). Animals designated for the pharmacokinetic analysis were euthanized at different time points (e.g. 12, 16, 24, 36 and 48 hours). At least 1.0 mL of whole blood was drawn from the marginal ear vein or cardiac puncture (terminal bleed only) into K2EDTA tubes for plasma collection and processed for analytical analysis.
Immediately following euthanasia, the eyes was enucleated. Aqueous humor from both eyes was removed via syringe and snap frozen for analysis. Eyes were dissected when frozen to isolate various ocular tissues and minimize drug diffusion to adjacent tissues. Tissues from left and right eyes were collected in separate vials for analysis. List of tissues collected include plasma and aqueous humor, iris/ciliary body (ICB), retina, vitreous humor and RPE/choroid. The pharmacokinetic properties of intravitreally delivered Edonentan in rabbits are shown in FIG. 9A, FIG. 9B, FIG. 9C and FIG. 9D.

[8] = Pharmacokinetics after topical administration in the rabbit; format: in vivo, Dutch-belted rabbits; details: single eye drop 100 μg, 10 minutes, 2 and 7 hours
Experimental: To determine the pharmacokinetic properties of Edonentan following topical administration in the rabbit, rabbits (Dutch-belted rabbits) received an eye drop in both eyes (100 μg of Edonentan, 35 μL dose volume/eye). After the administrations, the animals (N=2) were euthanized at different time points (e.g. 10 minutes (immediately after pot-dose), 2 and 7 hours) and tissues were collected for analysis. List of tissues collected include plasma, retina, vitreous humor and bulbar conjunctiva.

[9] = test system: ETA/ETB receptor; details: background statement; cited from earlier work

Cc1onc(NS(=O)(=O)c2ccccc2-c2ccc(-c3ncco3)cc2CN(C)C(=O)CC(C)(C)C)c1C [Edonentan, N-[[2′-[[(4,5-dimethyl-3-isoxazolyl)amino]sulfonyl]-4-(2-oxazolyl)[1,1′-biphenyl]-2-yl]methyl]-N,3,3-trimethylbutanamide]
Solubility in Ethyl Acetate, rating in words ([1]; ethyl acetate): Good | Solubility at pH 2 ([1]; pH 2): <1 μM | Solubility at pH 7, comparison in words ([1]; pH 7): superior to that of A-182086 | Stability in Solid State, in words [2]: Stable | Permeability, rating in words [3]: Mid-High | ET-1 induced vasospasm / vasoconstriction (fluorescein angiography) ([4]; 0.5 μg ET-1 IVT, then 10 μg Edonentan IVT 30 min later): reversed; also recorded: reversal | Time to reversal of the ET-1 effect ([4]; after ET-1, 10 μg Edonentan IVT (60 min after Edonentan)): ≤ 90 min | Fluorescein dye velocity as an index of retinal blood flow ([4]; healthy rabbits, 0.5 μg ET-1 and 10 μg antagonist IVT): improved to control levels | Retinal hypoxia area [5]: improvement of retinal hypoxia; also recorded: improved retinal hypoxia | Ocular exposure after topical administration (retina/RPE/choroid, aqueous humor, vitreous humor) ([6]; eye drop 100 μg, 4 and 8 hours): detected; also recorded: permeate through cornea/sclera and achieve retina exposure | Detection in the aqueous humor after oral administration ([6]; oral, 17 mg/kg as printed): detectable | Detection in the retina/RPE/choroid and vitreous humor after oral administration ([6]; oral, 1.7 and 17 mg/kg as printed): detectable | t1/2 after intravitreal delivery [7]: longer t1/2 | Tissue exposure after topical administration (plasma, retina, vitreous humor, bulbar conjunctiva) [8]: detected in all tissues examined at all timepoints; also recorded: penetrate through ocular layers | Endothelin receptor antagonism, description in words [9]: highly selective and very potent endothelin A receptor antagonist
